Data as given in patent US20240294551A1 (AMGEN INC., priority 2022, published 2024).
Where two headings read alike, the source gives them in different places.

Assays:
[1] = target: GDP-bound KRAS protein (aa 1-169), containing both G12D and C118A amino acid substitutions (Homo sapiens (Human), UniProt P01116, C118A/G12D); assay: KRAS G12D Coupled Nucleotide Exchange Assay; format: biochemical; details: read-out: KRAS G12D Coupled Exchange IC50
[2] = test system: Phosphorylation of ERK1/2 in AsPC-1 cells; assay: Phospho-ERK1/2 MSD Assay; format: cell-based, human; details: read-out: 2 h p-ERK (AsPC-1 cells), IC50
Summary of the method: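 Read-out: MSD electrochemiluminescent detection of phosphorylated ERK1/2 in whole-cell lysates, fitted to a 4-parameter logistic curve for IC50. Prior to lysis, AsPC-1 cells (25,000 per well) received a 2 h compound dose-response at 37 °C.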

[3] = target: His-tagged KRAS G12D protein (Homo sapiens (Human), UniProt P01116, G12D); assay: KRAS G12D TR-FRET Assay; format: binding; details: read-out: KRAS G12D Binding IC50
Summary of the method: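 His-tagged KRAS G12D (diluted to 20 nM in pH 7.4 HEPES buffer with 10 mM MgCl2 and 10 μM GDP) was preincubated with titrated compound for 30 min at room temperature. Biotinylated KRPep-2d peptide (diluted to 20 nM) was then added for 1 h, and displacement was monitored by TR-FRET.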

MIA PaCa-2 cells = assay: MIA PaCa-2 CTG Assay (CellTiter-Glo cell viability); format: cell-based, human; details: Homo sapiens; Mia PaCa-2, 72 h; second value of the cell; read-out: G12D/C/V Cell Proliferation CTG (72 h) Mia PaCa-2
Procedure: MIA PaCa-2 CTG Assay Protocol
MIA PaCa-2 (human pancreatic carcinoma; ATCC CRL-1420) cells were cultured in RPMI 1640 medium containing 10% fetal bovine serum and 1× penicillin/streptomycin/L-glutamine. Cells were seeded in 384-well plates at a density of 1.67E+04 cells/mL and incubated at 37° C., 5% CO2, overnight. Serially-diluted compound or DMSO was added to the cells, and plates were incubated at 37° C., 5% CO2 for 72 h. Cell viability was measured using a CellTiter-Glo® Luminescent Cell Viability Assay kit (Promega) according to the manufacturer's protocol. The luminescence signal of treated samples was normalized to DMSO control, and data were analyzed using a 4-parameter logistic model to calculate IC50 values.

AsPC-1 cells = assay: AsPC-1 CTG Assay (CellTiter-Glo cell viability); format: cell-based, human; details: AsPC-1, 72 h, first value of the cell, read-out: G12D/C/V Cell Proliferation CTG (72 h) AsPC-1
Summary of the method: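 Human pancreatic AsPC-1 or colon SW620 cells in RPMI 1640 with 10% FBS, seeded overnight, then exposed to serially diluted compound for 72 h at 37 °C. CellTiter-Glo luminescence normalized to DMSO control; IC50 from a 4-parameter logistic model.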

Chain of GDP-bound KRAS protein (aa 1-169), containing both G12D and C118A amino acid substitutions (P01116 other isoform, or with tags, fused parts or gaps G12D/C118A): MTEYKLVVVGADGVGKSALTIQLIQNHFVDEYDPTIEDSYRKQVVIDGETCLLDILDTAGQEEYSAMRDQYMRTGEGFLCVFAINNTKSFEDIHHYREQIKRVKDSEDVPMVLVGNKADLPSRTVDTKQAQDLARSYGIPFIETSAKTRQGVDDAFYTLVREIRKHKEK
Chain of His-tagged KRAS G12D protein (P01116 other isoform, or with tags, fused parts or gaps G12D): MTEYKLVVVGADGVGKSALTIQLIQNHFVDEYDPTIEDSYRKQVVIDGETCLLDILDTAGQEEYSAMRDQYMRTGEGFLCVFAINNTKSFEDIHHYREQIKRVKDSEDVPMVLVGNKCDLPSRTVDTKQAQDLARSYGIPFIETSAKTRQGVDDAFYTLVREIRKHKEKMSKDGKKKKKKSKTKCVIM

Row | SMILES | IC50 [1] | IC50 ([2]; Homo sapiens, ASPC1, 2 h) | IC50 [3] | IC50 (MIA PaCa-2 cells) | IC50 (AsPC-1 cells; Homo sapiens, ASPC1, 72 h) | IC50 ([2]; 2 h) | IC50 (AsPC-1 cells)
1 | Cc1cc2[nH]ncc2c2c1CCCn1ccc(n1)[C@H]1CCCN(C1)c1nc(OC[C@@]34CCCN3C[C@H](F)C4)nc3c(F)c-2ncc13 [Example 154, (18S)-31-fluoro-25-(((2R,7aS)-2-fluorotetrahydro-1H-pyrrolo[1,2-a]pyrrol-7a(5H)-yl)methoxy)-9-methyl-5,6,14,22,24,26,30,33-octaazaheptacyclo[25.3.1.1~14,17~.1~18,22~.0~2,10~.0~3,7~.0~23,28~]tritriaconta-1(31),2,4,7,9,15,17(33),23,25,27,29-undecaene] | 4 nM | 252 nM | 2 nM | 230 nM | 3360 nM | – | –
2 | O=C1OCCc2c(Cl)cc3[nH]ncc3c2-c2ncc3c(nc(OC[C@@]45CCCN4C[C@H](F)C5)nc3c2F)N2CCO[C@@H](CO1)C2 [Example 217] | 2 nM | 23 nM | 4 nM | 49 nM | 455 nM | – | –
3 | Fc1c2ncc3c(nc(OC[C@@]45CCCN4C[C@H](F)C5)nc13)N1CCC[C@@H](Cc3ncc(o3)CCc3c(Cl)cc4[nH]ncc4c3-2)C1 [Example 231] | 4 nM | 11.6 nM | 6 nM | 42 nM | 29 nM | – | –
4 | Fc1c2ncc3c(nc(OC[C@@]45CCCN4C[C@H](F)C5)nc13)N1CCCO[C@@H](COCCCCc3c(Cl)cc4[nH]ncc4c3-2)C1 [Example 140] | 4 nM | 83 nM | 5 nM | 100 nM | 650 nM | – | –
5 | O=C1OCCCc2c(Cl)cc3[nH]ncc3c2-c2ncc3c(nc(OC[C@@]45CCCN4C[C@@H](F)C5)nc3c2F)N2CCOC[C@H](C2)O1 [Example 360, (26S)-18-chloro-32-fluoro-4-(((25,7aS)-2-fluorotetrahydro-1H-pyrrolo[1,2-a]pyrrol-7a(5H)-yl)methoxy)-23,25,28-trioxa-1,3,5,9,14,15-hexaazahexacyclo[24.4.1.1~6,10~.0~2,7~.0~11,19~.0~12,16~]dotriaconta-2,4,6(32),7,9,11,13,16,18-nonaen-24-one] | 3 nM | 118 nM | 10 nM | 344 nM | 457 nM | – | –
6 | Cc1cc2[nH]ncc2c2c1CCCOC(=O)O[C@@H]1COCCN(C1)c1nc(OC[C@@]34CCCN3C[C@H](F)C4)nc3c(F)c-2ccc13 [Example 192, (26S)-32-fluoro-4-(((2R,7aS)-2-fluorotetrahydro-1H-pyrrolo[1,2-a]pyrrol-7a(5H)-yl)methoxy)-18-methyl-23,25,28-trioxa-1,3,5,14,15-pentaazahexacyclo[24.4.1.1~6,10~.0~2,7~.0~11,19~.0~12,16~]dotriaconta-2,4,6,8,10(32),11,13,16,18-nonaen-24-one] | – | 21.8 nM | – | 67 nM | 375 nM | – | –
7 | Fc1c2ncc3c(nc(OC[C@@]45CCCN4C[C@H](F)C5)nc13)N1CCC[C@@H](CSCCCCc3c(Cl)cc4[nH]ncc4c3-2)C1 [Example 143] | – | 109 nM | – | 480 nM | 980 nM | – | –
8 | Fc1c2ncc3c(nc(OC[C@@]45CCCN4C[C@H](F)C5)nc13)N1CCC[C@H](C1)c1coc(n1)CCCc1c(Cl)cc3[nH]ncc3c1-2 [Example 246, (18R)-9-chloro-31-fluoro-25-(((2R,7aS)-2-fluorotetrahydro-1H-pyrrolo[1,2-a]pyrrol-7a(5H)-yl)methoxy)-15-oxa-5,6,22,24,26,30,33-heptaazaheptacyclo[25.3.1.1~14,17~.1~18,22~.0~2,10~.0~3,7~.0~23,28~]tritriaconta-1(31),2,4,7,9,14(33),16,23,25,27,29-undecaene] | – | – | – | 82 nM | – | 10.1 nM | 112 nM
